Tests used:
[1] = system: Serine/threonine-protein kinase A-Raf (Homo sapiens), P10398 [Y301D,Y302D]; assay: Inhibition of recombinant human A-Raf Y301D/Y302D mutant (273 to end residues) assessed as residual activity at 1 uM using myelin basic protein as substrate incubated for 40 mins in presence of [gamma-33ATP] by scintillation counting based radiometry assay relative to control
[2] = molecular target: Calcium/calmodulin-dependent protein kinase type 1G (Homo sapiens) (UniProt Q96NX5); assay: Inhibition of recombinant full length human CaMKIgamma assessed as residual activity at 1 uM using KKLRRTLSFAEPG as substrate incubated for 40 mins in presence of [gamma-33ATP] by scintillation counting based radiometry assay relative to control
[3] = molecular target: Calcium/calmodulin-dependent protein kinase kinase 1 (Homo sapiens) (UniProt Q8N5S9); assay: Inhibition of recombinant full length human CaMKK1 assessed as residual activity at 1 uM […] incubated for 40 mins in presence of [gamma-33ATP] by scintillation counting based radiometry assay relative to control
[4] = molecular target: Epithelial discoidin domain-containing receptor 1 (Homo sapiens) (UniProt Q08345); assay: Inhibition of recombinant human DDR1 (492 to end residues) assessed as residual activity at 1 uM using KKKSPGEYVNIEFG as substrate at 40 mins in presence of [gamma-33ATP] by scintillation counting based radiometry assay relative to control
[5] = system: Receptor tyrosine-protein kinase erbB-2 (Homo sapiens), P04626 [G778D]; assay: Inhibition of recombinant human ERBB2 G778D mutant (676 to end residues) assessed as residual activity at 1 uM using poly(Glu, Tyr) 4:1 as substrate at 40 mins in presence of [gamma-33ATP] by scintillation counting based radiometry assay relative to control
[6] = molecular target: Inhibitor of nuclear factor kappa-B kinase subunit alpha (Homo sapiens) (UniProt O15111); assay: Inhibition of full length human IKKalpha assessed as residual activity at 1 uM using peptide as substrate after 40 mins by [gamma-33ATP] radiometric assay relative to control
[7] = molecular target: Mitogen-activated protein kinase 1 (Homo sapiens) (UniProt P28482); assay: Inhibition of recombinant full length human MAPK1 assessed as residual activity at 1 uM using myelin basic protein as substrate incubated for 40 mins in presence of [gamma-33P]ATP by scintillation counting based radiometry assay relative to control
[8] = molecular target: Mitogen-activated protein kinase kinase kinase kinase 5 (Homo sapiens) (UniProt Q9Y4K4); assay: Inhibition of recombinant human MAP4K5 assessed as residual activity at 1 uM using myelin basic protein as substrate incubated for 40 mins in presence of [gamma-33ATP by scintillation counting based radiometry assay relative to control
[9] = molecular target: MAP kinase-activated protein kinase 3 (Homo sapiens) (UniProt Q16644); assay: Inhibition of recombinant human MAPKAPK3 (2 to end residues) assessed as residual activity at 1 uM using KKLNRTLSVA as substrate incubated for 40 mins in presence of [gamma-33ATP by scintillation counting based radiometry assay relative to control
[10] = molecular target: Mitogen-activated protein kinase kinase kinase 11 (Homo sapiens) (UniProt Q16584); assay: Inhibition of recombinant human MLK3 assessed as residual activity at 1 uM using by scintillation counting based radiometry assay relative to control
[11] = molecular target: Serine/threonine-protein kinase NIM1 (Homo sapiens) (UniProt Q8IY84); assay: Inhibition of recombinant full length human NIM1 assessed as residual activity at 1 uM using KKKVSRSGLYRSPSMPENLNRPR as substrate measured after 40 mins in presence of [gamma33P]ATP by scintillation counting method relative to control
[12] = molecular target: Serine/threonine-protein kinase PAK 5 (Homo sapiens) (UniProt Q9P286); assay: Inhibition of recombinant human PAK5 (425 to end residues) assessed as residual activity at 1 uM using RRRLSFAEPG as substrate measured after 40 mins in presence of [gamma33P]ATP by scintillation counting method relative to control
[13] = molecular target: Interferon-induced, double-stranded RNA-activated protein kinase (Homo sapiens) (UniProt P19525); assay: Inhibition of recombinant human PKR (252 to end residues) assessed as residual activity at 1 uM using RSRSRSRSRSRSRSR as substrate measured after 40 mins in presence of [gamma33P]ATP by scintillation counting method relative to control
[14] = molecular target: Macrophage-stimulating protein receptor (Homo sapiens) (UniProt Q04912); assay: Inhibition of recombinant human Ron (983 to end residues) assessed as residual activity at 1 uM using GGMEDIYFEFMGGKKK as substrate measured after 40 mins in presence of [gamma33P]ATP by scintillation counting method relative to control
[15] = molecular target: Ribosomal protein S6 kinase alpha-6 (Homo sapiens) (UniProt Q9UK32); assay: Inhibition of recombinant full length human Rsk4 assessed as residual activity at 1 uM using LRRASLG as substrate measured after 40 mins in presence of [gamma33P]ATP by scintillation counting method relative to control
[16] = molecular target: High affinity nerve growth factor receptor (Homo sapiens) (UniProt P04629); assay: Inhibition of human TrkA (440 to end residues) assessed as residual activity at 1 uM using KKKSPGEYVNIEFG as substrate measured after 40 mins in presence of [gamma33P]ATP by scintillation counting method relative to control
[17] = molecular target: Testis-specific serine/threonine-protein kinase 2 (Homo sapiens) (UniProt Q96PF2); assay: Inhibition of recombinant full-length human TSSK2 at 1 uM assessed as residual activity at 1 uM using KKKVSRSGLYRSPSMPENLNRPR as substrate measured after 40 mins in presence of [gamma33P]ATP by scintillation counting method relative to control
[18] = molecular target: Tau-tubulin kinase 2 (Homo sapiens) (UniProt Q6IQ55); assay: Inhibition of human TTBK2 (1 to 331 residues) assessed as residual activity at 1 uM using Casein as substrate measured after 40 mins in presence of [gamma33P]ATP by scintillation counting method relative to control
[19] = molecular target: Serine/threonine-protein kinase WNK3 (Homo sapiens) (UniProt Q9BYP7); assay: Inhibition of human WNK3 (1 to 434 residues) assessed as residual activity at 1 uM using myelin basic protein as substrate measured after 40 mins in presence of [gamma33P]ATP by scintillation counting method relative to control
[20] = molecular target: Death-associated protein kinase 3 (Homo sapiens) (UniProt O43293); assay: Inhibition of human ZIPK (1 to 290 residues) assessed as residual activity at 1 uM using KKLNRTLSFAEPG as substrate measured after 40 mins in presence of [gamma33P]ATP by scintillation counting method relative to control
[21] = molecular target: Phosphatidylinositol 4-phosphate 5-kinase type-1 gamma (Homo sapiens) (UniProt O60331); assay: Inhibition of recombinant full-length human PIP5K1gamma at 1 uM assessed as residual activity at 1 uM using phosphatidylinositol 4-phosphate as substrate measured after 40 mins by HTRF assay

Chain of Ribosomal protein S6 kinase alpha-6 (Homo sapiens) (Q9UK32 whole entry): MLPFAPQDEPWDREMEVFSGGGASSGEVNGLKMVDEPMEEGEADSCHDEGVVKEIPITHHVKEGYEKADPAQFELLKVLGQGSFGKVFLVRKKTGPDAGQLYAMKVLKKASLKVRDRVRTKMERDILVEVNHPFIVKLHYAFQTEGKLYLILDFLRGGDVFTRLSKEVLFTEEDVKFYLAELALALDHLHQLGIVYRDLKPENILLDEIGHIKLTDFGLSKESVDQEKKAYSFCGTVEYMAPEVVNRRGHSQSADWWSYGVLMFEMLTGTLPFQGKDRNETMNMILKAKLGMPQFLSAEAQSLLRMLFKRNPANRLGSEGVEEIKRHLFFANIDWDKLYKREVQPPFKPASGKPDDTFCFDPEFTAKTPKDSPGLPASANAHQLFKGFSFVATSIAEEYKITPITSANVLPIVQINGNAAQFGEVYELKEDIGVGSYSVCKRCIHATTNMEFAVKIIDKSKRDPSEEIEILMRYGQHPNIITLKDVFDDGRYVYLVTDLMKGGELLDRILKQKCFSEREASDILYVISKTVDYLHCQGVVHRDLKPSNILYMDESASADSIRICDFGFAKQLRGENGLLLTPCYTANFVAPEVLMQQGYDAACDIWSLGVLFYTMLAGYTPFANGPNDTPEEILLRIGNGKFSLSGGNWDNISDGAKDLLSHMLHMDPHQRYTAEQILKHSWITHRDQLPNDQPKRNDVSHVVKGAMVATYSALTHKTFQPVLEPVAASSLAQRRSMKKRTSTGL
Chain of Interferon-induced, double-stranded RNA-activated protein kinase (Homo sapiens) (P19525 whole entry): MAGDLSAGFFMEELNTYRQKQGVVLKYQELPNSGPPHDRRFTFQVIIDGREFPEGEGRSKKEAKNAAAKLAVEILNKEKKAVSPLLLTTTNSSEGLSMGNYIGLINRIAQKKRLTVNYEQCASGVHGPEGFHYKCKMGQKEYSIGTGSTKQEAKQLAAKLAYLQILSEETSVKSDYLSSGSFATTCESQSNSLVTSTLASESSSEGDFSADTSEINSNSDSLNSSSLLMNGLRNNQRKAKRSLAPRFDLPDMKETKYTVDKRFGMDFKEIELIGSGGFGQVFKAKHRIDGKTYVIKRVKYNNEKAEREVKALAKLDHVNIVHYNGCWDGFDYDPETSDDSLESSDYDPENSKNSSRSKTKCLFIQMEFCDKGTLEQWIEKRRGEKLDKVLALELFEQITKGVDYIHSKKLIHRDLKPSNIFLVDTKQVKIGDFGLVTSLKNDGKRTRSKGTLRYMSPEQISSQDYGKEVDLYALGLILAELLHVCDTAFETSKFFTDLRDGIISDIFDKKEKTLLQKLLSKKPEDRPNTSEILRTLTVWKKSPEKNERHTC
Chain of Epithelial discoidin domain-containing receptor 1 (Homo sapiens) (Q08345 whole entry, the tested form may be a part): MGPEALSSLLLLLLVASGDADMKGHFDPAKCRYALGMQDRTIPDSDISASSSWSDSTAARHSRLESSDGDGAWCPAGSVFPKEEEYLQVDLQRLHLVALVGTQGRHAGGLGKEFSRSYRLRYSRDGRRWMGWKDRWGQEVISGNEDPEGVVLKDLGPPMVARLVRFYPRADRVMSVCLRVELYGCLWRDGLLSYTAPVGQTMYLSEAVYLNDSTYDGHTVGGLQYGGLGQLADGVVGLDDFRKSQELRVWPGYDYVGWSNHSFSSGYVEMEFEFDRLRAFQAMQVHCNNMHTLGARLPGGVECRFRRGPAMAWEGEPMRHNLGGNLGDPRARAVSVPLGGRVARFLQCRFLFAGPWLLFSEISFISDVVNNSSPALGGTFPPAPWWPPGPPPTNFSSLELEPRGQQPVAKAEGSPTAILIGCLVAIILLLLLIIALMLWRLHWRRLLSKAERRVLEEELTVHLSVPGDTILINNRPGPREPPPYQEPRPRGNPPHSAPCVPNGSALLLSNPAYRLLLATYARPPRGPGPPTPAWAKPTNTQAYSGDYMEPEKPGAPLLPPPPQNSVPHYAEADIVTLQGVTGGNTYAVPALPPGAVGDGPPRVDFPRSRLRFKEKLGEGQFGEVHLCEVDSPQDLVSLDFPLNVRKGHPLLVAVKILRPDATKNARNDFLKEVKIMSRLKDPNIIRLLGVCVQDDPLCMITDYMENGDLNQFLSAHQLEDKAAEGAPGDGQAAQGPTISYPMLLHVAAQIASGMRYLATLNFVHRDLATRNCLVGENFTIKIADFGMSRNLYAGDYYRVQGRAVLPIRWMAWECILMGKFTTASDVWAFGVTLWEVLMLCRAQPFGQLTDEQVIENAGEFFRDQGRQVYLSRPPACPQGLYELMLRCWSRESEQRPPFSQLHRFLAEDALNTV
Chain of Serine/threonine-protein kinase A-Raf (Homo sapiens), P10398 [Y301D,Y302D] (P10398 whole entry Y301D/Y302D): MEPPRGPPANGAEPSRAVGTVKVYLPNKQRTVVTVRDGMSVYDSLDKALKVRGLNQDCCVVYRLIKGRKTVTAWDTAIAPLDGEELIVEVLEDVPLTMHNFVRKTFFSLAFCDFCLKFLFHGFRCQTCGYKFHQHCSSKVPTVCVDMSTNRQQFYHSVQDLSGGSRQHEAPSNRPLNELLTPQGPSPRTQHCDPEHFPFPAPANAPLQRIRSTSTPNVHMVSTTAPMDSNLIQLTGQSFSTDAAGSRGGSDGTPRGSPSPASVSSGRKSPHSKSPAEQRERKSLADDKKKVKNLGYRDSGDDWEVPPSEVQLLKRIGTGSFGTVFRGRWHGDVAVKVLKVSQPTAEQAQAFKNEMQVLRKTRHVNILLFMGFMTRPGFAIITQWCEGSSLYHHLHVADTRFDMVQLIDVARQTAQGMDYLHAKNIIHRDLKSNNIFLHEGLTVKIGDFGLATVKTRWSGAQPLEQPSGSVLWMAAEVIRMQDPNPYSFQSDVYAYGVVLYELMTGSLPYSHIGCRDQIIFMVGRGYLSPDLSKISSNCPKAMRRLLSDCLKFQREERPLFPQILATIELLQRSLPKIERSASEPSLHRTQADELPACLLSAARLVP
Chain of Mitogen-activated protein kinase kinase kinase kinase 5 (Homo sapiens) (Q9Y4K4 whole entry, looked up): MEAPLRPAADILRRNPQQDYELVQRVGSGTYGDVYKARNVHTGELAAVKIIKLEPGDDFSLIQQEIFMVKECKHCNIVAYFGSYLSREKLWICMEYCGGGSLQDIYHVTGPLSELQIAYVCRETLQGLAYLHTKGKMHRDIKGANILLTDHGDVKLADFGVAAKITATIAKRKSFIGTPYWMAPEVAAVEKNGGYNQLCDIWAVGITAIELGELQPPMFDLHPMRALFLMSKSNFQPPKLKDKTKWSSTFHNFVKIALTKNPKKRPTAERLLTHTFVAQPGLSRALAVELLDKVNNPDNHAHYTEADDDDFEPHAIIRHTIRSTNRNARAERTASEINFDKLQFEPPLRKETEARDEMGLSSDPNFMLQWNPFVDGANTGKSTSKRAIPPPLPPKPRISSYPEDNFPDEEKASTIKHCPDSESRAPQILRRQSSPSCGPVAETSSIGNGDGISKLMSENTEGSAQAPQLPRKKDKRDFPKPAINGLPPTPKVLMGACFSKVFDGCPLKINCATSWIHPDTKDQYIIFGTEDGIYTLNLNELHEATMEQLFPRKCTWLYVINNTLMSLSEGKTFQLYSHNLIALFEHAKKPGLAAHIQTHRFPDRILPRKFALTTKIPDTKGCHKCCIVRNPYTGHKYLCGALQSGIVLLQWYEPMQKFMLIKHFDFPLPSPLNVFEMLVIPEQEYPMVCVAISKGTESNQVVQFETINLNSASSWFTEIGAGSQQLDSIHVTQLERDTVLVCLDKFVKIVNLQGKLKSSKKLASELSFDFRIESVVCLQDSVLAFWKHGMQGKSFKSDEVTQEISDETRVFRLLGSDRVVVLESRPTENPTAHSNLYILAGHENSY
Chain of Inhibitor of nuclear factor kappa-B kinase subunit alpha (Homo sapiens) (O15111 whole entry): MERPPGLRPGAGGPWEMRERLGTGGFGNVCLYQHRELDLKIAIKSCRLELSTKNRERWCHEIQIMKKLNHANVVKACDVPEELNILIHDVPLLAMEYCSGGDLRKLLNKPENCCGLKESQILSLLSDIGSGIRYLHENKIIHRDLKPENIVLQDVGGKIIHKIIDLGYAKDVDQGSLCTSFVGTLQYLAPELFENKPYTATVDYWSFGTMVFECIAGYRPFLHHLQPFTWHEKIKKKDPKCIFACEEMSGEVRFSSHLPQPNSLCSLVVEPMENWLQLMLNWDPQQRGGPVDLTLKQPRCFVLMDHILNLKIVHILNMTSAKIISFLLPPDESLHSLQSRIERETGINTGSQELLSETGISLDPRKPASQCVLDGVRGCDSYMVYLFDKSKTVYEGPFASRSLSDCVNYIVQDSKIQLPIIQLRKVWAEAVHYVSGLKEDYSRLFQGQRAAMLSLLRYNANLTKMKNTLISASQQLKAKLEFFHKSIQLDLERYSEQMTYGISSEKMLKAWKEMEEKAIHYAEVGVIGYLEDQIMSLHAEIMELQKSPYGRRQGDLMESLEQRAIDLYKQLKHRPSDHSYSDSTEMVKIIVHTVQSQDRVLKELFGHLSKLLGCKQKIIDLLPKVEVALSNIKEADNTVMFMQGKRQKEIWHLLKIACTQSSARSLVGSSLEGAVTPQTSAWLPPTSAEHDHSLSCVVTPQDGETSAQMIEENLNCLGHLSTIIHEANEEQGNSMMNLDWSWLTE
Chain of Serine/threonine-protein kinase NIM1 (Homo sapiens) (Q8IY84 whole entry): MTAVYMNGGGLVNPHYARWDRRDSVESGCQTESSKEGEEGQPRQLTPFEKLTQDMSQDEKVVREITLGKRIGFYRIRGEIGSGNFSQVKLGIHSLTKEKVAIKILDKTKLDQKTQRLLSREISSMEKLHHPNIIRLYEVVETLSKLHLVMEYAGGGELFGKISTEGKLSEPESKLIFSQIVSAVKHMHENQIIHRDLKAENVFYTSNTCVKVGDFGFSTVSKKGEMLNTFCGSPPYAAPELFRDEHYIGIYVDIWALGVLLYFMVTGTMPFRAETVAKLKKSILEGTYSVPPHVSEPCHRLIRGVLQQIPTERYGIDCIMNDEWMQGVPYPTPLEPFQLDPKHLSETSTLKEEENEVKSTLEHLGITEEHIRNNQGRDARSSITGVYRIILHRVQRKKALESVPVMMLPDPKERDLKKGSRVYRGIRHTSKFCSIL

Structure (SMILES)	Activity [1] [%]	Activity [2] [%]	Activity [3] [%]	Activity [4] [%]	Activity [5] [%]	Activity [6] [%]	Activity [7] [%]	Activity [8] [%]	Activity [9] [%]	Activity [10] [%]	Activity [11] [%]	Activity [12] [%]	Activity [13] [%]	Activity [14] [%]	Activity [15] [%]	Activity [16] [%]	Activity [17] [%]	Activity [18] [%]	Activity [19] [%]	Activity [20] [%]	other results
N=C1NC(=O)/C(=C\c2ccc(-c3cccc([N+](=O)[O-])c3)o2)S1	105	99	92	99	103	102	97	95	97	96	101	103	98	104	99	93	108	107	99	93	Activity [21]: 101%
C=CCOC(=O)c1cc(-c2ccc(/C=C3/NC(=S)NC3=O)o2)ccc1Cl	111	92	96	106	118	104	106	94	96	89	95	98	98	106	92	100	102	111	102	96	Activity [21]: 100%
